Source: patent US10281476B2, “Methods to identify modulators of RyR calcium channels” (REGENTS OF THE UNIVERSITY OF MINNESOTA, priority 2013, dated 2019)
Where no end group is shown, it is not given here.

Target: RyR2 (Rattus norvegicus, UniProt B0LPN4)
Assay: Steady-state F-DPc10 binding at the Z-line of saponin-permeabilized myocytes (confocal)
Design: endogenous in cells; host or cells: saponin-permeabilized adult rat ventricular myocytes
Description: Rat ventricular myocytes were isolated and permeabilized as previously described (Li et al., Circ Res, 2002; 90:309-316). All procedures were performed according to the Guiding Principles in the Care and Use of the Animals and were approved by the Council of American Physiological Society. DPc10, FKBP12.6, and CaM were labeled at specific sites with small fluorescence probes, similar to our previous studies (Guo et al., Circ Res, 2010; 106:1743-1752; Cornea et al., PNAS USA, 2009; 106:6128-6133; Guo et al., Biophys J, 2011; 101:2170-2177).
Confocal images was measured using a Biorad RADIANCE2100™ laser scanning confocal microscope equipped with an Argon ion laser, Green HeNe laser and with a Nikon Fluo x40 oil lens. FRET (fluorescence resonance energy transfer) experiments between CaM and DPc10, and FKBP12.6 and DPc10 were performed using an Olympus FV1000 confocal microscope. All experiments were done at room temperature.
Myocytes were exposed to […] F-DPc10, with intracellular [Ca^2+] ([Ca^2+]i) set at 50 nmol/L. F-DPc10 fluorescence is highest at the Z-lines, where RyR2 is concentrated, forming a typical cross-striated pattern. The difference between fluorescence intensity at the Z-line (Fz) and M-line (FM) is taken to represent [F-DPc10] specifically bound at the myocyte Z-line. We calibrated the bound [F-DPc10] in permeabilized myocytes using the linear relationship between F-DPc10 fluorescence and bath [F-DPc10] (FIG. 7B). […] To further test whether this Z-line-associated F-DPc10 represents RyR2-bound F-DPc10, we measured FRET between FKBP12.6 (known to specifically bind to RyR2 with subnanomolar affinity) (Guo et al., Circ Res, 2010; 106:1743-1752) and F-DPc10. […] Donor (AF568-FKBP12.6) fluorescence at the Z-line was quenched by HF647-DPc10, but the M-line signal was not (FIG. 9B). […]

Chain of RyR2 (B0LPN4 whole entry): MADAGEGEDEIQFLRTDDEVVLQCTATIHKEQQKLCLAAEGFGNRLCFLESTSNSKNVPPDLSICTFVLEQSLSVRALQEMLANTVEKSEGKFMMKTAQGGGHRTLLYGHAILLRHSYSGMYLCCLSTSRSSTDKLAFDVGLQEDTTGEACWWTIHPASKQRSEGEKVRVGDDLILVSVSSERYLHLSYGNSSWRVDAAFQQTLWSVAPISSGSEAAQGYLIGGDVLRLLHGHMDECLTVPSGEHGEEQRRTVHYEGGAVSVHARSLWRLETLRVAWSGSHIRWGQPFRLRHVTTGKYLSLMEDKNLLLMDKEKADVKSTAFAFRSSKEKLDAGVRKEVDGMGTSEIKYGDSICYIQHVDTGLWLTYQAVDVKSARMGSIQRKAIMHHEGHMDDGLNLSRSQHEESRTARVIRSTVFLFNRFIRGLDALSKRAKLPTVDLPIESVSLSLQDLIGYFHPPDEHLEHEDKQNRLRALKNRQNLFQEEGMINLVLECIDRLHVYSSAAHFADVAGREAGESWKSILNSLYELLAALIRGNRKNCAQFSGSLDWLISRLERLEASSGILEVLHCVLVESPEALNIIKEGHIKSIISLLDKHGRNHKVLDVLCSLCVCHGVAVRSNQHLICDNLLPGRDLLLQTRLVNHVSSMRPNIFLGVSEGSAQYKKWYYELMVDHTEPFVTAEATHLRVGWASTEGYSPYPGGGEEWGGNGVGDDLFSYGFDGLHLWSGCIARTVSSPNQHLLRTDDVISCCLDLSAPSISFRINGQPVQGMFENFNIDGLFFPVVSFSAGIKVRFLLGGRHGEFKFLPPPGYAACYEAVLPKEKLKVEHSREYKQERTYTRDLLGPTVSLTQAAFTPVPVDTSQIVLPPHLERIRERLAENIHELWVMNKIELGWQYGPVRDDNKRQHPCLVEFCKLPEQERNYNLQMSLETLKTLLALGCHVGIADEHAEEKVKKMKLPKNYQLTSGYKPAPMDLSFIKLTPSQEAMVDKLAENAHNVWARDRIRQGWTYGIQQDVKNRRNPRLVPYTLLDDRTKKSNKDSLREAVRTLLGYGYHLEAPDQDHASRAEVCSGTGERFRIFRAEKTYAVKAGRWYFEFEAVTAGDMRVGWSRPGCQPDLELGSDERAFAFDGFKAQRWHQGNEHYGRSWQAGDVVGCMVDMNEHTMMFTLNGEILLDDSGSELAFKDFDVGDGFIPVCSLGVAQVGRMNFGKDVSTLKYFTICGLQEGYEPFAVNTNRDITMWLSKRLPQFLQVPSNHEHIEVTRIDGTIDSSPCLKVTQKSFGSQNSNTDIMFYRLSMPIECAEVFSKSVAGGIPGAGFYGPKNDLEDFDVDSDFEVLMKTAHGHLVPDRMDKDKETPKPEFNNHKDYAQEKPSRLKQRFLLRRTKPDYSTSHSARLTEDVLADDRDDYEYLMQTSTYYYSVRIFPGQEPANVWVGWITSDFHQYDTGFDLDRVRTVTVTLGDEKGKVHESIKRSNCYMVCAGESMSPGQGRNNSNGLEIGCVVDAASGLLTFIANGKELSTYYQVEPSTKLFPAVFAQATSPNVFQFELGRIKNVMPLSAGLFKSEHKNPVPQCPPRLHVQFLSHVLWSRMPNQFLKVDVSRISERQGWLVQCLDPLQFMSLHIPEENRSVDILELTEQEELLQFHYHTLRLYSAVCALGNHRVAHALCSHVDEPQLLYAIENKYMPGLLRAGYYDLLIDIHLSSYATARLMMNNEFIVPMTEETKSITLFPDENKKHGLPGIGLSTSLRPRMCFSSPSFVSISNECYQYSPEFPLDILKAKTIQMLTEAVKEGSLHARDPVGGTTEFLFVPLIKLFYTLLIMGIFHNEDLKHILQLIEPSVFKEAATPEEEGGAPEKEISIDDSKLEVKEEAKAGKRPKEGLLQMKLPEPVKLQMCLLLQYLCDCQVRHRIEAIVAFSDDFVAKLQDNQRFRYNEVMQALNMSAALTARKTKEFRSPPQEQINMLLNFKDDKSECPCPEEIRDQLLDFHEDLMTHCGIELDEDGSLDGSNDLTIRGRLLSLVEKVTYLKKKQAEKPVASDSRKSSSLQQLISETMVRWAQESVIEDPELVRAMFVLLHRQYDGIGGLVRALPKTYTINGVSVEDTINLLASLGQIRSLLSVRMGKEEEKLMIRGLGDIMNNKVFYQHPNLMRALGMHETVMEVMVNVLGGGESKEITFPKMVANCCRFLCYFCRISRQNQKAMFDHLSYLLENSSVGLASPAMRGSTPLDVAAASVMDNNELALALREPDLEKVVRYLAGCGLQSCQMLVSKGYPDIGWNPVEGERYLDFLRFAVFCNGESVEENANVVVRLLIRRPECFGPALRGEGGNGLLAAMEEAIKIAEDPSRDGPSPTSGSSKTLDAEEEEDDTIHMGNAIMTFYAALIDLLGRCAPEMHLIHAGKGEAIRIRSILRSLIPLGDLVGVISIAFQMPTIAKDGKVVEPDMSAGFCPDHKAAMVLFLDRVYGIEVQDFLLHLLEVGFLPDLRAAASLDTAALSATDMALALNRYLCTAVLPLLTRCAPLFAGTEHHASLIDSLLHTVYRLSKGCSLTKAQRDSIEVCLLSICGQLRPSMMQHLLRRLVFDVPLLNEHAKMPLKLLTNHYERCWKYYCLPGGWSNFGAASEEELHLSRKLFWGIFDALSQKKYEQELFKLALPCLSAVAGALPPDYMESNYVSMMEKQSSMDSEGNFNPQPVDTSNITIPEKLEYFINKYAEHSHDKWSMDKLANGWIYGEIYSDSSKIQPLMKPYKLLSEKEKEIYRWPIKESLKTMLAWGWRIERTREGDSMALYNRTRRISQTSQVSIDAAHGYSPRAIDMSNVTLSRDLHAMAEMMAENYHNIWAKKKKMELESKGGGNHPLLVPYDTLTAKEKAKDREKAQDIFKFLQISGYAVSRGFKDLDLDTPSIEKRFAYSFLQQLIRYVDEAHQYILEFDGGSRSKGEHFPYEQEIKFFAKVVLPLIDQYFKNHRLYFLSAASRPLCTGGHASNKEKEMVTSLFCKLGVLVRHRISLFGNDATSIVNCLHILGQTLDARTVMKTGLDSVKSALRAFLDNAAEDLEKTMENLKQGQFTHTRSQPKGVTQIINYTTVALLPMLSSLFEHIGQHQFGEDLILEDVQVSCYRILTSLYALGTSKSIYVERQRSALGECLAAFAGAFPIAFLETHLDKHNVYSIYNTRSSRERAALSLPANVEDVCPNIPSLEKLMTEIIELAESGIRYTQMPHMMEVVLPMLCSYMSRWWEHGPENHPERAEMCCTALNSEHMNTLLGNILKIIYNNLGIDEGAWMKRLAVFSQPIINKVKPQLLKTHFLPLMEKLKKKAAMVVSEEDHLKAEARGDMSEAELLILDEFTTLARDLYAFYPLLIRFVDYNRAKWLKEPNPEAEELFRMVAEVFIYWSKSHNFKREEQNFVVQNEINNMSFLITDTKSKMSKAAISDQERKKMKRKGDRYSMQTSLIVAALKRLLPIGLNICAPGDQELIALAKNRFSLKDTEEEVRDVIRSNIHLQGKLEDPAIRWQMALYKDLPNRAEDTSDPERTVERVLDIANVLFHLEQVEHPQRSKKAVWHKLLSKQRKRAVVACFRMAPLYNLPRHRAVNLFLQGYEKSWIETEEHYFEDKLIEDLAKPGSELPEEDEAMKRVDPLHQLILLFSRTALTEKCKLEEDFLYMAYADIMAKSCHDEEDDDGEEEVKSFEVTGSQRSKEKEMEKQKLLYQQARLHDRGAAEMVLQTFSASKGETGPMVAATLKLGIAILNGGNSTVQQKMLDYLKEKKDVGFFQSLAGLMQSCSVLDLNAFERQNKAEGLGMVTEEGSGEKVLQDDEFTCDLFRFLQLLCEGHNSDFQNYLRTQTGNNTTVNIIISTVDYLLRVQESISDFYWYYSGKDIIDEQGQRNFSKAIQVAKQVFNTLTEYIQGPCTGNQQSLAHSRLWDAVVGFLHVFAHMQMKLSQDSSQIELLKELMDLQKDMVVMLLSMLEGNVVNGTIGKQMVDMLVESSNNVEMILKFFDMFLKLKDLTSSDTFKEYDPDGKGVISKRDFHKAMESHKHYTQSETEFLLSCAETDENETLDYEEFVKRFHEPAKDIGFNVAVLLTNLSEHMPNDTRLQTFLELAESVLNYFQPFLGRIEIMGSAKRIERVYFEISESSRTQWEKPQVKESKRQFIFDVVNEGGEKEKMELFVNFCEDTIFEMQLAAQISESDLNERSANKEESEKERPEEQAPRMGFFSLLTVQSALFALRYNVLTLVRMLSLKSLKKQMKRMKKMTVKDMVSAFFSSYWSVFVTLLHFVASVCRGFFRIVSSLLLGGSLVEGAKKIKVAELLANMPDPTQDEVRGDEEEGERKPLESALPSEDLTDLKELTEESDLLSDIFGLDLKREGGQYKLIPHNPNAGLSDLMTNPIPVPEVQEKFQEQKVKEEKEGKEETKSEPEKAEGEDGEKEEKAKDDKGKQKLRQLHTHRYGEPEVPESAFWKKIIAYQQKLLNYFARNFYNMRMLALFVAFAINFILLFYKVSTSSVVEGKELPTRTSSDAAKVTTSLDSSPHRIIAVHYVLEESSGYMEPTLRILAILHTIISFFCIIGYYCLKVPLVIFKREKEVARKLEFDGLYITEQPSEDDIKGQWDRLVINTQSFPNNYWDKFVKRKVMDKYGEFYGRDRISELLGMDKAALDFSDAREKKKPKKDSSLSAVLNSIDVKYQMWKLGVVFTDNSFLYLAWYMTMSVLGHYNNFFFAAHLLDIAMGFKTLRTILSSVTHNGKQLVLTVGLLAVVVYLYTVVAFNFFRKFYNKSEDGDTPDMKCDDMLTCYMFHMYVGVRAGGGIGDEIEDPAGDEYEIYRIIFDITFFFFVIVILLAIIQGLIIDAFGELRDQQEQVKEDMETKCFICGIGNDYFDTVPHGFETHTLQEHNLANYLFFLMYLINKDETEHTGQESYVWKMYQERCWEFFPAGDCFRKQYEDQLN

GFCPDHKAAMVLFLDRVYGIEVQDFLLHLLEVGFLP [DPc10]
Kd: ~500 nM | Bmax value (summary in Discussion): 1.6 µmol/L
